Laboratory results reported in patent publication US4539149A, “β-Lactam antibacterial agents” (Beecham Group p.l.c., priority 1981, dated 1985).
Where a name gives a salt, the structure may show the parent alone. Blank lines part the entries; values can stand above or below the molecule they belong to.

Experiments:
[1] = tested on: E. coli 96 R-; test: in vivo test in mice against experimental infection, E. coli 96 R-; conditions: Escherichia coli, sc, mice (5 mice/group), s.c., dosed at 1 and 5 hours after infection, read-out: Total s.c. CD50
Protocol: (§1) The compound of Example 5 was tested in vivo in mice against experimental infections.
(§2) Organism Total* s.c. CD50 (Mg/Kg)
(§3) *dosed at 1 and 5 hours after infection

[2] = blood concentration in mice after subcutaneous administration; type: in vivo; conditions: mouse, sc, mice (5), 50 mg/kg
Protocol: The compound of Example 5 was administered to mice (5) by the subcutaneous route at a dosage of 50 mg/kg and the blood concentration determined.

[3] = tested on: K. aerogenes T767; test: in vivo test in mice against experimental infection, K. aerogenes T767; conditions: Klebsiella aerogenes, sc, mice (5 mice/group), s.c., dosed at 1 and 5 hours after infection, read-out: Total s.c. CD50
Protocol: as §1, §2, §3

[4] = tested on: P. mirabilis 889; test: MIC against P. mirabilis 889; type: cell-based; conditions: for MIC: Proteus mirabilis, 889, P. mirabilis 889
[5] = tested on: E. coli 96 R+; test: in vivo test in mice against experimental infection, E. coli 96 R+; conditions: Escherichia coli, sc, mice (5 mice/group), s.c., dosed at 1 and 5 hours after infection, read-out: Total s.c. CD50
Protocol: as §1, §2, §3

SMILES: CCN1CCN(C(=O)N[C@@H](C(=O)N[C@]2(NC=O)C(=O)N3[C@@H](C(=O)O)C(C)(C)S[C@@H]32)c2ccc(O)cc2)C(=O)C1=O [Example 5, 6α-Formamido-6β-[D-2-[(4-ethyl-2,3-dioxopiperazin-1-yl)carbonylamino]-2-(4-hydroxyphenyl)acetamido]penicillanic acid, sodium salt]
- ED50 [1]: < 3.1 mg/kg
- AUC [2]: 11 µg·h/mL
- concentration at 5 min ([2]; 5 mins): 24.4 µg/mL
- concentration at 10 min ([2]; 10 mins): 23.2 µg/mL
- concentration at 20 min ([2]; 20 mins): 14.5 µg/mL
- concentration at 0.5 h ([2]; 30 mins): 11 µg/mL
- concentration at 1 h ([2]; 60 mins): < 0.9 µg/mL
- concentration at 2 h ([2]; 120 mins): < 0.9 µg/mL
- ED50 [3]: 3.7 mg/kg
- MIC [4]: 0.1 mg/L
- ED50 [5]: 5.2 mg/kg

SMILES: CCN1CCN(C(=O)NC(C(=O)NC2(NC=O)C(=O)N3C(C(=O)[O-])=C(CSc4nnc(C)s4)CSC32)c2ccc(OC(C)=O)c(OC(C)=O)c2)C(=O)C1=O.[Na+] (stereo not drawn) [Example 68, 7β-[2-(3,4-Diacetoxyphenyl)-2-[(4-ethyl-2,3-dioxopiperazin-1-yl)carbonylamino]acetamido]-7α-formamido-3-[(2-methyl-1,3,4-thiadiazol-5-yl)thiomethyl]ceph-3-em-4-carboxylic acid, sodium salt]
- MIC against P. mirabilis 889 ([4]; P. mirabilis 889): 0.1 mg/L

SMILES: CC1(C)S[C@H]2N(C(=O)[C@@]2(NC=O)NC(=O)COc2ccccc2)[C@H]1C(=O)O [Example 1, 6α-Formamido-6β-phenoxyacetamido penicillanic acid sodium salt]
- MIC [4]: > 100 mg/L

Results, then the molecule that gave them:

- MIC [4]: > 100 mg/L
SMILES: CC(=O)OCC1=C(C(=O)O)N2C(=O)[C@@](NC=O)(NC(=O)[C@H](N)c3ccccc3)[C@H]2SC1 [Example 35, 7β-(D-2-Amino-2-phenylacetamido)-7α-formamidocephalosporanic acid, trifluoroacetic acid salt]

- MIC [4]: 0.1 mg/L
SMILES: CCN1CCN(C(=O)N[C@@H](C(=O)N[C@]2(NC=O)C(=O)N3[C@@H](C(=O)O)C(C)(C)S[C@@H]32)c2cccs2)C(=O)C1=O [Example 26, 6β-[D-2-(4-Ethyl-2,3-dioxopiperazin-1-yl)carbonylamino]-2-(thien-2-yl)acetamido]-6α-formamidopenicillanic acid, sodium salt]

- MIC [4]: 5 mg/L
SMILES: CC1(C)S[C@H]2N(C(=O)[C@@]2(NC=O)NC(=O)[C@H](NC(=O)Nc2cnc(Nc3ccccc3)nc2O)c2ccccc2)[C@H]1C(=O)O [Example 7, 6α-Formamido-6β-[D-2-(2-phenylamino-4-hydroxypyrimidin-5-ylureido)-2-phenylacetamido]penicillanic acid, di-sodium salt]

- MIC [4]: 100 mg/L
SMILES: CCN1CCN(C(=O)N[C@@H](C(=O)N[C@]2(NC=O)C(=O)N3[C@@H](C(=O)O)C(C)(C)S[C@@H]32)[C@H](C)OCc2ccccc2)C(=O)C1=O [Example 30, 6β-[(2R,3S)-3-Benzyloxy-2-[(4-ethyl-2,3-dioxopiperazin-1-yl)carbonylamino]butyramido]-6α-formamidopenicillanic acid, sodium salt]
